Tests used:
[1] = system: R. dominica adults; test: Non-choice paper perforation bioassay (Examples 2-4); assay type: in vivo, Rhyzopertha dominica; details: 24 hours
Description: The device used for the penetration prevention bioassay consisted of two identical open-ended glass cylinders (24 mm i.d., 28 mm o.d., 26 mm height) each with four notches spaced at equal distances around the outer rim. The impregnated office paper and a piece of wire-mesh (US standard No. 25) cut into 28 mm diameter discs were placed together on top of one cylinder. Then the second cylinder was placed over the wire-mesh and the two cylinders were pressed together and held in place by two rubber bands, secured by the notches in the cylinder rims (Navarro et al., 1998). Ten 10-15 d old R. dominica adults were placed inside the top cylinder and were kept in the test devices for […] in a temperature and humidity controlled room. All tests were run at 27° C. and 65% R.H., and there were ten replicates (devices) per test. At the end of each exposure period, the discs were examined on a black surface under a binocular microscope at 15× magnification. The number of perforations appearing as black circles were counted, and a comparative analysis was performed using the Student's t test for residual effect and the differences between control and dosages applied were determined using Dunnet's test (Anon., 1989). […]

[2] = system: storage beetle Tribolium castaneum; details: as long as 8 weeks following application; cited from earlier work
[3] = system: several field and storage insects; details: direct application methods; cited from earlier work
[4] = system: storage insects; test: Penetration prevention (antifeedant) effect judged from combined repellency, choice and non-choice bioassays; assay type: in vivo, Rhyzopertha dominica; parameters: key: 0 (no effect); +; ++; +++ (strong effect); details: at 50 μg/cm^2, 4 arbitrary classes
Description: (§1) In order to evaluate the effect of isolated samples or compounds on the behavior of storage insects, three bioassays were conducted: repellency, “choice” and “non-choice” paper perforation bioassays. These bioassays were aimed to uncover two principle activities: repellency and antifeedant activities. Accordingly, the “repellency bioassay” uncovered the sample's capacity to repel insects and the “choice bioassay” uncovered the combined antifeedant and repelling activities. […] Thus, the combined data of all three bioassays enabled determining the antifeedant capacity of the sample.

[5] = system: R. dominica adults; test: Choice paper perforation bioassay (Examples 2-4); assay type: in vivo, Rhyzopertha dominica
Description: as §1
The same methodology used in the non-choice test was used in this test. However, in choice test, the 28 mm diameter discs of 110 μm thick office paper were divided in half; one side was impregnated with the oil or fraction under test, while the other half was used as a blank and was treated with acetone only. In this test only a 50 microgram sample of the test oil or fraction was applied per cm^2 of paper. […] The number of perforations appearing in the two parts of the disc were counted, and a comparative analysis was performed using the Student's t test for residual effect and the differences between control and dosages applied were determined using Dunnet's test (Anon., 1989).

[6] = system: T. castaneum adults; test: Repellency bioassay (Examples 2-4); assay type: in vivo, Tribolium castaneum; parameters: key to Repellency: 0 (no effect); +; ++; +++ (strong effect)
Description: as §1
The propensity of the tested extracts to repel insects was determined against T. castaneum adults using the methods by Laudani et al. (1955) and McDonald et al. (1970). Accordingly, filter paper strips (Filtrak 3 HW; 10×20 cm) were treated with 4 ml of acetone solutions of turmeric extracts at 50 μg/cm^2 (or any other predetermined concentration). Each treated paper strip was attached lengthwise by Scotch tape on the reverse side, edge to edge, to two untreated 5×20 cm strips, to which acetone alone had been similarly applied. Two glass rings, 2.5 cm high and 6.4 cm i.d., were then placed over the two matched papers so that the joined edges of the papers bisected the rings. Ten adults of the test insect species were then exposed separately on the test arenas inside each glass ring, and their numbers on the treated and untreated halves were recorded every hour for the first eight hours exposure on the first day, and then in the morning of the next day two additional recordings were made for a total of 10 consecutive readings. In each test four replicates were conducted. All tests were performed at 27° C. The average count of all four replicates, each containing 10 reading periods was converted to percent repellency values, as described by Laudani et al. (1955).

SMILES: CC(C)=CC(=O)CC(C)c1ccc(C)cc1 (stereo not drawn) [ar-turmerone, 2-methyl-6-(4-methylphenyl)-2-hepten-4-one]
- Non-choice test (%) (50 μg/cm^2) [1]: −483%
- average repellency [2]: 62.9%
- repellency class [2]: IV (class IV, 60.1-80%)
- concentration at which insecticidal [3]: at least 500 ppm
- Penetration prevention effect [4]: 0
- Choice Test (%) (50 μg/cm^2) [5]: 89%
- Repellency test (%) (50 μg/cm^2) ([6]; 50 μg/cm^2): 75%
- Repellency ([6]; at 50 μg/cm^2, 4 arbitrary classes): +++
- ar-turmerone required to achieve 60% repellency ([6]; estimated from concentration-repellency curve (FIG. 2)): ~32 μg/cm^2
